The nature of data set [1]: Intrinsic clearance in human liver microsomes at 1 uM. It is filed as ADME, Microsome.
Data set [2] addresses T1, Corticotropin-releasing factor receptor 1 (Rattus norvegicus, UniProt P35353).
T1 sequence (P35353 whole entry): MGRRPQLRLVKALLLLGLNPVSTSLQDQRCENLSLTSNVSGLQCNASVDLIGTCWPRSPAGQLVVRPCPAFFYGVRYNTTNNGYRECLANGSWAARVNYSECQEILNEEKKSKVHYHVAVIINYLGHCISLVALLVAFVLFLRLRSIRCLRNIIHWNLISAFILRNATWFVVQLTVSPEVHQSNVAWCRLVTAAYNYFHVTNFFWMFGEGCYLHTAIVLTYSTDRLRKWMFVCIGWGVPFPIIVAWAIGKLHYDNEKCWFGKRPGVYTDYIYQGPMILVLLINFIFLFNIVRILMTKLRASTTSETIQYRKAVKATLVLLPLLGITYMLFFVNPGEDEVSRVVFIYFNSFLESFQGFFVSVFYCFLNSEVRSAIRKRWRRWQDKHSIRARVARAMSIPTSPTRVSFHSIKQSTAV
Put plainly: Displacement of [125I]ovine-CRF from CRF1 receptor in rat frontal cortex by rapid filtration technique. The format is tissue-based. A general note: In a radioligand displacement assay an active substance lowers the binding of a labelled ligand.

Data set [3] deals with Rattus norvegicus. Put plainly: Total plasma concentration in Sprague-Dawley rat at 10 mg/kg, po. It is filed as ADME, organism-based. The conditions noted are these: in vivo. Details: dose 10 mg/kg, route oral.
For data set [4], the system named is Rattus norvegicus. The experiment in a line: Ex vivo receptor occupancy of CRF1 receptor in Sprague-Dawley rat brain at 10 mg/kg, po after 20 mins by autoradiography relative to [125I-tyrosine]sauvagine. The format is functional.
The nature of data set [5]: Fraction unbound in Sprague-Dawley rat plasma at 10 mg/kg, po after 3 hrs by equilibrium dialysis. The format is ADME, organism-based. Details: dose 10 mg/kg, route oral. A general note: Equilibrium dialysis compares concentrations on both sides of a semipermeable membrane.
Data set [6] deals with Rattus norvegicus. The experiment in a line: Plasma free concentration in Sprague-Dawley rat at 10 mg/kg, po. It is filed as ADME, organism-based. Further details: dose 10 mg/kg, route oral. The conditions noted are these: in vivo.
Data set [7] in a line: Volume of distribution at steady state in Sprague-Dawley rat 2 mg/kg, iv within 0.17 to 24 hrs. The format is ADME, organism-based. Details: dose 2 mg/kg, route intravenous. The settings on record: in vivo, read-out: Vdss.
Data set [8] can be described thus: AUC in Sprague-Dawley rat at 10 mg/kg, po dosed as aqueous solution of oleoyl macrogolglyceride/DMAC/polysorbate 80, 85:10:5 within 0.25 to 24 hrs. It is filed as ADME, organism-based. Details: time 0.25-24 hr, dose 10 mg/kg, route oral. The conditions noted are these: plasma.
A short description of data set [9]: Aqueous solubility at pH 6.5. The format is physicochemical.
For data set [10], the system named is Rattus norvegicus. Put plainly: Anxiolytic activity in Sprague-Dawley rat at 10 mg/kg, po assessed as decrease in exit latency after 60 mins by defensive withdrawal test relative to control. It is filed as functional. Details: scale not given: the % may be the effect or the level left.
A short description of data set [11]: AUC in Sprague-Dawley rat at 10 mg/kg, po dosed as aqueous suspension of 1% polysorbate 80 in 0.5% methylcellulose within 0.25 to 24 hrs. The format is ADME, organism-based. Further details: time 0.25-24 hr, dose 10 mg/kg, route oral. The conditions noted are these: in vivo.
Data set [12] is described as follows: Oral bioavailability in Sprague-Dawley rat at 10 mg/kg dosed as aqueous suspension of 1% polysorbate 80 in 0.5% methylcellulose within 0.25 to 24 hrs. The format is ADME, organism-based. The settings on record: in vivo.
A short description of data set [13]: Cmax in Sprague-Dawley rat at 10 mg/kg, po dosed as aqueous solution of oleoyl macrogolglyceride/DMAC/polysorbate 80, 85:10:5 within 0.25 to 24 hrs. It is filed as ADME, organism-based. Details: dose 10 mg/kg, route oral. The conditions noted are these: Sprague-Dawley, in vivo.
Data set [14] is described as follows: Aqueous solubility at pH 1. The format is physicochemical.
A short description of data set [15]: Half life in Sprague-Dawley rat 2 mg/kg, iv within 0.17 to 24 hrs. The format is ADME, organism-based. Details: dose 2 mg/kg, route intravenous. The conditions noted are these: in vivo.
Data set [16] can be described thus: Cmax in Sprague-Dawley rat at 10 mg/kg, po dosed as aqueous suspension of 1% polysorbate 80 in 0.5% methylcellulose within 0.25 to 24 hrs. It is filed as ADME, organism-based. Details: dose 10 mg/kg, route oral. The conditions noted are these: in vivo.
A short description of data set [17]: Clearance in Sprague-Dawley rat 2 mg/kg, iv within 0.17 to 24 hrs. The format is ADME, organism-based. Details: dose 2 mg/kg, route intravenous. The conditions noted are these: in vivo.
Data set [18] can be described thus: Oral bioavailability in Sprague-Dawley rat at 10 mg/kg dosed as aqueous solution of oleoyl macrogolglyceride/DMAC/polysorbate 80, 85:10:5 within 0.25 to 24 hrs. It is filed as ADME, organism-based. The settings on record: Sprague-Dawley, in vivo.

Molecules are shown by their SMILES. Converted amounts (≈) assume the structure as drawn.

The results in this text go back to ChEMBL document CHEMBL1158467, “In vitro intrinsic clearance-based optimization of N3-phenylpyrazinones as corticotropin-releasing factor-1 (CRF1) receptor antagonists” (J Med Chem, 2009).

By CLint scaled is commonly meant a measure of how fast metabolising enzymes remove a compound, apart from limits set by blood flow. For orientation: IC50 means the concentration that gives 50% inhibition. Compound `COc1cc(C)c(Nc2nc(Cl)cn([C@H](C)C3CC3)c2=O)cc1OC` yielded a CLint scaled at 1 µM in data set [1] of 100 mL/min/kg. The compound further registered an IC50 in data set [2] of 15 nM.
Consider `COc1cc(C)c(Nc2nc(Cl)cn([C@H](C)C3CC3)c2=O)cc1C`, for which the CLint scaled at 1 µM in data set [1] turned out to be 61 mL/min/kg.
With `COC[C@@H](C)n1cc(Cl)nc(Nc2c(Cl)cc(C#N)cc2Cl)c1=O`, in [1], the intrinsic clearance (CLint scaled) at 1 µM came out at 35 mL/min/kg. Besides, the IC50 in data set [2] is 18 nM.
Compound `COC[C@@H](C)n1cc(Cl)nc(Nc2c(Cl)cc(C(F)(F)F)cc2Cl)c1=O` had an intrinsic metabolic clearance (CLint scaled) at 1 µM in data set [1] of 32 mL/min/kg. The IC50 in data set [2] amounted to 11 nM.
The corresponding values for `Cc1cc(C)c(Nc2nc(Cl)cn([C@H](C)C3CC3)c2=O)c(Cl)c1` are 140 mL/min/kg and 0.98 nM.
By fraction unbound is commonly meant the share of the substance not bound to proteins or other matrix. Compound `C[C@H](C1CC1)n1cc(Cl)nc(Nc2c(Cl)cc(C#N)cc2Cl)c1=O` yielded a concentration in [3] of 120 nM. For the same compound, the Activity in data set [4] was 11%. Besides, the fraction unbound at 3 h in [5] was determined as 0.019. Besides, the “Cp(f)” value in [6] stood at 2.3 nM. Moreover, in [1], the CLint scaled at 1 µM amounted to 58 mL/min/kg.
Compound `C[C@H](C1CC1)n1cc(Cl)nc(Nc2c(Cl)cc(S(C)(=O)=O)cc2Cl)c1=O` gave an IC50 in data set [2] of 63 nM.
For `COCC(COC)n1cc(Cl)nc(Nc2c(Cl)cc(C(F)(F)F)cc2Cl)c1=O`, the CLint scaled at 1 µM in data set [1] turned out to be 53 mL/min/kg. In data set [2], the half-maximal inhibitory concentration (IC50) is 8.5 nM.
For `CC[C@H](C1CC1)n1cc(Cl)nc(Nc2c(C)cc(C)cc2C)c1=O`, the CLint scaled at 1 µM in data set [1] was found to be 340 mL/min/kg.
As for `COc1cc(Cl)c(C)cc1Nc1nc(Cl)cn([C@H](C)C2CC2)c1=O`, the IC50 in [2] stood at 36 nM.
For the compound `Cc1cc(C)c(Nc2nc(Cl)cn([C@H](C)C3CC3)c2=O)c(C)c1`, the CLint scaled at 1 µM in [1] is 180 mL/min/kg.
`C[C@H](C1CC1)n1cc(Cl)nc(Nc2cc3c(cc2Cl)OCC3)c1=O` yielded an IC50 in [2] of 120 nM.
As to `Cc1cc(Cl)c(Nc2nc(Cl)cn([C@H](C)C3CC3)c2=O)cc1C#N`, the CLint scaled at 1 µM in data set [1] was 160 mL/min/kg. This compound also gave a half-maximal inhibitory concentration (IC50) in data set [2] of 19 nM.
For orientation: AUC means concentration integrated over time. Broadly, the solubility is how much of the substance goes into solution per volume. Broadly, the bioavailability is dose-corrected exposure relative to a reference, in per cent. What is called Cmax is the maximum level reached in the sampled fluid or tissue. One may read the half-life as how long it takes for the measured level to halve. A word on the clearance: it is a measure of how efficiently the substance is removed, as volume per time. Turning to `C[C@H](C1CC1)n1cc(C#N)nc(Nc2c(Cl)cc(OC(F)F)cc2Cl)c1=O`, the Vd in data set [7] was 13 L/kg. Moreover, the AUC in data set [8] is 15 µM·h; in data set [11] it was 1.9 µM·h. The solubility in data set [9] and in data set [14] was under 1 µg/mL throughout. The values for the Activity in [10] and in data set [4] were 61% and 55%, respectively. For the same compound, the bioavailability was 10% in [12] and 80% in [18]. In addition, the results for the Cmax in data set [13] and in data set [16] were 1600 nM and 160 nM, respectively. This compound had a half-life in [15] of 12 h. In [5], the fraction unbound at 3 h was found to be 0.03. Moreover, the clearance in data set [17] worked out at 21 mL/min/kg. Moreover, in data set [2], the concentration for half-maximal inhibition (IC50) worked out at 4.3 nM.
The compound `Cc1cc(C)c(Nc2nc(Cl)cn([C@H](C)C3CC3)c2=O)cc1C` gave an IC50 in data set [2] of 4.8 nM.
The same measure, in the same setting: next, `C[C@@H](C1CC1)n1cc(Cl)nc(Nc2c(Cl)cc(C(F)(F)F)cc2Cl)c1=O`: 7.9 nM.
On to `COCC(COC)Nc1nc(C)nc2c(-c3ccc(Cl)cc3Cl)c(C)nn12`, for which the Activity in [10] was 61%. Further, the IC50 in [2] came out at 1.2 nM.
As to `Cc1cn([C@H](C)C2CC2)c(=O)c(Nc2c(C)cc(Cl)cc2C)n1`, the Vd in data set [7] amounted to 12 L/kg. Further, the AUC in data set [8] came to 1.7 µM·h; in data set [11] it was 0.95 µM·h. Besides, the solubility in data set [9] is 13 µg/mL (≈ 39.2 µM); in [14], 1360 µg/mL (≈ 4100 µM). Besides, the figures for the bioavailability in data set [12] and in data set [18] were 6% and 10%, respectively. The Cmax in [13] was determined as 270 nM; in data set [16], 95 nM. In data set [15], the half-life is 12 h. The compound also showed a clearance in data set [17] of 30 mL/min/kg. In data set [2], this compound gave a half-maximal inhibitory concentration (IC50) of 3.1 nM.
In [1], `COc1cc(Cl)c(Nc2nc(Cl)cn([C@H](C)C3CC3)c2=O)cc1F` gave a CLint scaled at 1 µM of 180 mL/min/kg. In addition, the half-inhibitory concentration (IC50) in data set [2] came out at 8.2 nM.
